# Results published in ChEMBL document CHEMBL5113436, “WCK 4034: A promising oxazolidinone for treating gram positive infections” (Bioorg Med Chem Lett, 2022).
# Experiments:
# [1] = test system: Haemophilus influenzae; test: Antibacterial activity against Haemophilus influenzae […] ATCC 35054 incubated for 18 hrs by CLSI protocol based two-fold serial agar dilution method; assay type: functional
# [2] = test system: Staphylococcus aureus; test: Antibacterial activity against methicillin-resistant Staphylococcus aureus Sta-032 incubated for 18 hrs by CLSI protocol based two-fold serial agar dilution method; assay type: functional
# [3] = test system: Staphylococcus aureus; test: Antibacterial activity against methicillin-sensitive Staphylococcus aureus Sta-001 incubated for 18 hrs by CLSI protocol based two-fold serial agar dilution method; assay type: functional
# [4] = test system: Streptococcus pneumoniae; test: Antibacterial activity against Streptococcus pneumoniae ATCC 49619 incubated for 18 hrs by CLSI protocol based two-fold serial agar dilution method; assay type: functional
# [5] = test system: Staphylococcus aureus; test: Antibacterial activity against Staphylococcus aureus Sta-5027 infected in Swiss mouse model of septicemia administered by oral route 1 h and 5 h post-infection; assay type: functional; conditions: Sta-5027, 168 h, time 7 day
# [6] = Cmax in Wistar rat at 30 mg/kg, iv; assay type: ADME, organism-based; parameters: dose 30 mg/kg, route iv; conditions: in vivo
# [7] = Cmax in Beagle dog at 15 mg/kg, iv; assay type: ADME, organism-based, Canis lupus familiaris; parameters: dose 15 mg/kg, route iv; conditions: in vivo
# [8] = AUC in Beagle dog at 15 mg/kg, iv; conditions: in vivo
# [9] = Clearance in Wistar rat at 15 mg/kg, iv; assay type: ADME, organism-based; conditions: in vivo
# [10] = Terminal half life in Beagle dog at 15 mg/kg, iv; assay type: ADME, organism-based, Canis lupus familiaris; conditions: in vivo
# [11] = AUC in Wistar rat at 15 mg/kg, iv; assay type: ADME, organism-based; parameters: dose 15 mg/kg, route iv; conditions: in vivo
# [12] = Volume of distribution in Wistar rat at 15 mg/kg, iv; assay type: ADME, organism-based; conditions: in vivo
# [13] = test system: Staphylococcus aureus; test: Antibacterial activity against Linezolid-resistant Staphylococcus aureus Sta-5059 incubated for 18 hrs by CLSI protocol based two-fold serial agar dilution method; assay type: functional
# [14] = Terminal half life in Wistar rat at 30 mg/kg, iv; assay type: ADME, organism-based; conditions: in vivo
# [15] = Clearance in Wistar rat at 30 mg/kg, iv; assay type: ADME, organism-based; conditions: in vivo
# [16] = Cmax in Wistar rat at 15 mg/kg, iv; assay type: ADME, organism-based; parameters: dose 15 mg/kg, route iv; conditions: in vivo
# [17] = AUC in Beagle dog at 15 mg/kg, iv; assay type: ADME, organism-based, Canis lupus familiaris; parameters: dose 15 mg/kg, route iv; conditions: in vivo
# [18] = Clearance in Beagle dog at 15 mg/kg, iv; assay type: ADME, organism-based, Canis lupus familiaris; conditions: in vivo
# [19] = test system: Staphylococcus aureus; test: Antibacterial activity against Linezolid-resistant Staphylococcus aureus Sta-5060 incubated for 18 hrs by CLSI protocol based two-fold serial agar dilution method; assay type: functional
# [20] = Volume of distribution in Wistar rat at 30 mg/kg, iv; assay type: ADME, organism-based; conditions: in vivo
SMILES,MIC [1] [mg/L],MIC [2] [mg/L],MIC [3] [mg/L],MIC [4] [mg/L],ED50 [5] [mg/kg],further results
CC(=O)NC[C@H]1CN(c2ccc(N3CCCC4(C3)OCCO4)c(F)c2)C(=O)O1,16,4,4,4,5,–
CC(=O)NC[C@H]1CN(c2ccc(N3CCC4(CC3)NCCS4)c(F)c2)C(=O)O1,8,4,4,2,5,–
CS(=O)(=O)OC[C@H]1CN(c2ccc(N3CCC4(OCCO4)C(F)C3)c(F)c2)C(=O)O1 (some centres undefined),–,6.25,12.5,4,> 10,–
CC(=O)NC[C@H]1CN(c2ccc(N3CCC4(CC3)CO4)c(F)c2)C(=O)O1,16,4,4,4,–,–
CC(=O)NC[C@H]1CN(c2ccc(N3CCC4(CC3)COCCO4)c(F)c2)C(=O)O1,> 16,4,4,2,> 10,–
CC(=O)NC[C@H]1CN(c2ccc(N3CCOCC3)c(F)c2)C(=O)O1 [LINEZOLID],4,–,–,–,2.5,"Cmax [6]: 27.3 µg/mL; Cmax [7]: 1.62 µg/mL; AUC [8]: 78.2 µg·h/mL; CL [9]: 2.04 L/h/kg; beta t1/2 [10]: 1.3 h; AUC [11]: 1.24 µg·h/kg; Vd [12]: 0.4 L/kg; MIC [13]: > 8 mg/L; beta t1/2 ([14]; iv, 30 mg/kg): 2.23 h; CL ([15]; iv, 30 mg/kg): 0.56 L/h/kg; Cmax [16]: 8.7 µg/mL; AUC [17]: 19.9 µg·h/kg; CL [18]: 0.19 L/h/kg; MIC [19]: > 8 mg/L; Vd ([20]; iv, 30 mg/kg): 17.82 L/kg"
CC(=O)NC[C@H]1CN(c2ccc(N3CCC4(OCCO4)C(C)C3)c(F)c2)C(=O)O1 (some centres undefined),> 16,32,32,8,–,–
CC(=O)NC[C@H]1CN(c2ccc(N3CCC4(OCCO4)C(F)C3)c(F)c2)C(=O)O1 (some centres undefined),–,4,12.5,2,5,–
CC(=O)NC[C@H]1CN(c2ccc(N3CCC4(CC3)OCC(C)(C)CO4)c(F)c2)C(=O)O1,> 16,16,16,8,–,–
CC(=O)NC[C@H]1CN(c2ccc(N3CCC4(CC3)OCCS4(=O)=O)c(F)c2)C(=O)O1,16,> 32,> 32,2,–,–
CC(=O)NC[C@H]1CN(c2ccc(N3CCC4(CC3)OCCS4)c(F)c2)C(=O)O1,> 16,4,4,4,10,–
CC(=O)NC[C@H]1CN(c2ccc(N3CCC4(CC3)SCCS4)c(F)c2)C(=O)O1,> 16,4,8,2,> 20,–
CC(=O)NC[C@H]1CN(c2ccc(N3CCC4(CC3)OCCCCO4)c(F)c2)C(=O)O1,> 16,16,16,4,–,–
CC(=O)NC[C@H]1CN(c2ccc(N3CCC4(CCO4)CC3)c(F)c2)C(=O)O1,> 16,6.25,16,4,20,–
CC(=O)NC[C@H]1CN(c2ccc(N3CCC4(CC3)OCC(C)O4)c(F)c2)C(=O)O1 (some centres undefined),–,8,–,–,> 20,–
CC(=O)NC[C@H]1CN(c2ccc(N3CCC4(CC3)COCCCO4)c(F)c2)C(=O)O1,> 16,4,8,4,10,–
CC(=O)NC[C@H]1CN(c2ccc(N3CCC4(OCCO4)C(C)(C)C3)c(F)c2)C(=O)O1,2,12.5,–,4,–,–
CC(=O)NC[C@H]1CN(c2ccc(N3CCC4(CC3)OCC[S+]4[O-])c(F)c2)C(=O)O1 (some centres undefined),8,4,4,2,10,–
CC(=O)NC[C@H]1CN(c2ccc(N3CCC4(CC3)COCO4)c(F)c2)C(=O)O1,> 16,4,4,2,5,–
CC(=O)NC[C@H]1CN(c2ccc(N3CCC4(CC3)OCCO4)c(F)c2)C(=O)O1,16,4,4,4,5,–
CC(=O)NC[C@H]1CN(c2cc(F)c(N3CCC4(OCCO4)[C@H](F)C3)c(F)c2)C(=O)O1,16,8,8,2,2.5,MIC [13]: > 8 mg/L; MIC [19]: > 8 mg/L
CC(=O)NC[C@H]1CN(c2ccc(N3CCC4(OCCO4)C(F)C3)cc2)C(=O)O1 (some centres undefined),> 16,8,16,4,5,–
CS(=O)(=O)NC[C@H]1CN(c2ccc(N3CCC4(OCCO4)C(F)C3)c(F)c2)C(=O)O1 (some centres undefined),> 16,32,> 32,> 8,> 30,–
O=C1O[C@@H](Cn2ccnn2)CN1c1cc(F)c(N2CCC3(OCCO3)C(F)C2)c(F)c1 (some centres undefined),> 16,4,8,2,–,–
CC(=O)NC[C@H]1CN(c2ccc(N3CCC4(CC3)NCCO4)c(F)c2)C(=O)O1,8,2,2,2,20,–
CC(=O)NC[C@H]1CN(c2ccc(N3CCC4(CC3)OCC(C)(C)O4)c(F)c2)C(=O)O1,–,8,–,–,> 20,–
CC(=O)NC[C@H]1CN(c2cc(F)c(N3CCC4(OCCO4)C(F)C3)c(F)c2)C(=O)O1 (some centres undefined),16,2,2,> 4,< 5,MIC [13]: > 8 mg/L; MIC [19]: > 8 mg/L
CC(=O)NC[C@H]1CN(c2cc(F)c(N3CCC4(OCCO4)[C@@H](F)C3)c(F)c2)C(=O)O1,> 16,2,2,1,2.5,"Cmax [6]: 10.8 µg/mL; Cmax [7]: 7.1 µg/mL; AUC [8]: 135 µg·h/mL; CL [9]: 13.22 L/h/kg; beta t1/2 [10]: 4.01 h; AUC [11]: 7.32 µg·h/kg; Vd [12]: 0.4 L/kg; MIC [13]: > 8 mg/L; half-life ([14]; Wistar, read-out: beta t1/2 (converted)): 7.1 h; clearance ([15]; Wistar): 1.82 L/h/kg; Cmax [16]: 2.37 µg/mL; AUC [17]: 6.9 µg·h/kg; CL [18]: 0.1 L/h/kg; MIC [19]: > 8 mg/L; Vd ([20]; Wistar, read-out: Vd): 9.66 L/kg"
O=C1O[C@@H](Cn2ccnn2)CN1c1ccc(N2CCC3(OCCO3)C(F)C2)c(F)c1 (some centres undefined),> 16,3.12,16,4,–,–
